In US20250312462A1, “PAK1 DEGRADERS AND METHODS OF USE THEREOF” (INSTITUTE FOR CANCER RESEARCH D/B/A THE RESEARCH INSTITUTE …, priority 2022, published 2025):

Experiments:
Test in all cases: KINOMEscan
Settings in all cases: read-out: Percent Control
MARK2 = MARK2 (Homo sapiens, UniProt Q7KZI7)
Experimental: (§1) The kinase engagement assay (KINOMEscan®) was performed by DiscoverX assessing binding abilities toward a set of kinases.

PHKG2 = PHKG2 (Homo sapiens, UniProt P15735)
Experimental: as §1

[1] = target: RPS6KA5(Kin.Dom.2-C-terminal) (Homo sapiens, UniProt O75582)
Experimental: as §1

AAK1 = AAK1 (Homo sapiens, UniProt Q2M2I8)
Experimental: as §1

CDK9 = CDK9 (Homo sapiens, UniProt P50750)
Experimental: as §1

GAK = GAK (Homo sapiens, UniProt O14976)
Experimental: as §1

STK16 = STK16 (Homo sapiens, UniProt O75716)
Experimental: as §1

FLT3(D835Y) = FLT3(D835Y) (Homo sapiens, UniProt P36888, D835Y)
Experimental: as §1

MRCKA = MRCKA (Homo sapiens, UniProt Q5VT25)
Experimental: as §1

PHKG1 = PHKG1 (Homo sapiens, UniProt Q16816)
Experimental: as §1

RIPK2 = RIPK2 (Homo sapiens, UniProt O43353)
Experimental: as §1

TRKA = TRKA (Homo sapiens, UniProt P04629)
Experimental: as §1

CAMK4 = CAMK4 (Homo sapiens, UniProt Q16566)
Experimental: as §1

CSNK1G2 = CSNK1G2 (Homo sapiens, UniProt P78368)
Experimental: as §1

PFTAIRE2 = PFTAIRE2 (Homo sapiens, UniProt Q96Q40)
Experimental: as §1

DCAMKL3 = DCAMKL3 (Homo sapiens, UniProt Q9C098)
Experimental: as §1

PRKR = PRKR (Homo sapiens, UniProt P19525)
Experimental: as §1

RIOK1 = RIOK1 (Homo sapiens, UniProt Q9BRS2)
Experimental: as §1

ERK2 = ERK2 (Homo sapiens, UniProt P28482)
Experimental: as §1

DDR2 = DDR2 (Homo sapiens, UniProt Q16832)
Experimental: as §1

MAP4K2 = MAP4K2 (Homo sapiens, UniProt Q12851)
Experimental: as §1

GSK3B = GSK3B (Homo sapiens, UniProt P49841)
Experimental: as §1

EPHB4 = EPHB4 (Homo sapiens, UniProt P54760)
Experimental: as §1

SLK = SLK (Homo sapiens, UniProt Q9H2G2)
Experimental: as §1

TNK2 = TNK2 (Homo sapiens, UniProt Q07912)
Experimental: as §1

ERN1 = ERN1 (Homo sapiens, UniProt O75460)
Experimental: as §1

LIMK1 = LIMK1 (Homo sapiens, UniProt P53667)
Experimental: as §1

PIK3C2G = PIK3C2G (Homo sapiens, UniProt O75747)
Experimental: as §1

FGFR1 = FGFR1 (Homo sapiens, UniProt P11362)
Experimental: as §1

PRKCD = PRKCD (Homo sapiens, UniProt Q05655)
Experimental: as §1

NEK10 = NEK10 (Homo sapiens, UniProt Q6ZWH5)
Experimental: as §1

[2] = target: ABL1(Y253F)-phosphorylated (Homo sapiens, UniProt P00519, Y253F)
Experimental: as §1

FLT3(N841I) = FLT3(N841I) (Homo sapiens, UniProt P36888, N841I)
Experimental: as §1

MYLK = MYLK (Homo sapiens, UniProt Q15746)
Experimental: as §1

MYLK4 = MYLK4 (Homo sapiens, UniProt Q86YV6)
Experimental: as §1

ROCK1 = ROCK1 (Homo sapiens, UniProt Q13464)
Experimental: as §1

ROCK2 = ROCK2 (Homo sapiens, UniProt O75116)
Experimental: as §1

YANK1 = YANK1 (Homo sapiens, UniProt Q8WU08)
Experimental: as §1

MYLK, sequence (Q15746 whole entry): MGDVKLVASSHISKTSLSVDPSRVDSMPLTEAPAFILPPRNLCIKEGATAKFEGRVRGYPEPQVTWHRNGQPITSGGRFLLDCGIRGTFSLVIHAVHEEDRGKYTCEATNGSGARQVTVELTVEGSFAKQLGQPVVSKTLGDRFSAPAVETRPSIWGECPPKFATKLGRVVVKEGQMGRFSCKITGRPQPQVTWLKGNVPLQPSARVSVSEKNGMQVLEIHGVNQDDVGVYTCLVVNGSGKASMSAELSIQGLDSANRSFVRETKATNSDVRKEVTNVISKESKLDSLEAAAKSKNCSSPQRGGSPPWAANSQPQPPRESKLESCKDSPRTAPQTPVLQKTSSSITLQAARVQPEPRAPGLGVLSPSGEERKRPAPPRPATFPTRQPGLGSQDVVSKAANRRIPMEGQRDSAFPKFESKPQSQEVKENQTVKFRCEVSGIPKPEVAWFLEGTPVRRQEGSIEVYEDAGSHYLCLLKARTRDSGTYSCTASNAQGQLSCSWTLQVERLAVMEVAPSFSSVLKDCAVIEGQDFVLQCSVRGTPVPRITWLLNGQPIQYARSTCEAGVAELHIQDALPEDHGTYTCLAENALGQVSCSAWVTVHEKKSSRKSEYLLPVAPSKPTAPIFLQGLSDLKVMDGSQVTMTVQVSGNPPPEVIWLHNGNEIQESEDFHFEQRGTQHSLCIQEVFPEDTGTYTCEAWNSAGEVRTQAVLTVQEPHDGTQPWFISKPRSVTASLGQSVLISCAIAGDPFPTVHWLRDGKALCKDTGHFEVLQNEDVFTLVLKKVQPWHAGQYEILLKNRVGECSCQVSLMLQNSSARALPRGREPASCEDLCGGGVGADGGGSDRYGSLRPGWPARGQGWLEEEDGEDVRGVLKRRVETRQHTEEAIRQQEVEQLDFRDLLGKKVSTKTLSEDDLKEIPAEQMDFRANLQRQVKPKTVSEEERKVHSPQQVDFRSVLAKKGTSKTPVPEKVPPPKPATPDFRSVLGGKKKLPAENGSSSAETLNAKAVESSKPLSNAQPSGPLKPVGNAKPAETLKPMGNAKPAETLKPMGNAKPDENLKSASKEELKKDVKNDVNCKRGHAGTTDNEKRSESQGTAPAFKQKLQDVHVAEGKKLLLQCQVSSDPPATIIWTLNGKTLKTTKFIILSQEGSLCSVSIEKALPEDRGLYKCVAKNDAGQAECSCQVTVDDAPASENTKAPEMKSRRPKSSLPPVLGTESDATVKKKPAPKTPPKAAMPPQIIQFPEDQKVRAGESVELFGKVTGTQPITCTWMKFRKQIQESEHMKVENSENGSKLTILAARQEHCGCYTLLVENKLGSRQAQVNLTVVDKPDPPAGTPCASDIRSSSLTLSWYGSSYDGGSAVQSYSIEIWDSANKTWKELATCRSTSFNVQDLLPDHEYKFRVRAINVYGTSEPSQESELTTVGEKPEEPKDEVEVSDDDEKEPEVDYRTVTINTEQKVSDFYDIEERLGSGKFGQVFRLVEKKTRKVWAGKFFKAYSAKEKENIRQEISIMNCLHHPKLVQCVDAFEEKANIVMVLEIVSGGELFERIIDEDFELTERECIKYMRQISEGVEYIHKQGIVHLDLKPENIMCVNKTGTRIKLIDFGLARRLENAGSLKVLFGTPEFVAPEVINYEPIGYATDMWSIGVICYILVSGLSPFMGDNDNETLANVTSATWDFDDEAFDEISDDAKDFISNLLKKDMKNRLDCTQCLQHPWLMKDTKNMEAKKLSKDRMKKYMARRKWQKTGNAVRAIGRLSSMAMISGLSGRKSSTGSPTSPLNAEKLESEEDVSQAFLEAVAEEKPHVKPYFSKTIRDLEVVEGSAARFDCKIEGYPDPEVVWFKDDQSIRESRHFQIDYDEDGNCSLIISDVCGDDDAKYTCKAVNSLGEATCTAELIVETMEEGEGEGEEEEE
GAK, sequence (O14976 whole entry): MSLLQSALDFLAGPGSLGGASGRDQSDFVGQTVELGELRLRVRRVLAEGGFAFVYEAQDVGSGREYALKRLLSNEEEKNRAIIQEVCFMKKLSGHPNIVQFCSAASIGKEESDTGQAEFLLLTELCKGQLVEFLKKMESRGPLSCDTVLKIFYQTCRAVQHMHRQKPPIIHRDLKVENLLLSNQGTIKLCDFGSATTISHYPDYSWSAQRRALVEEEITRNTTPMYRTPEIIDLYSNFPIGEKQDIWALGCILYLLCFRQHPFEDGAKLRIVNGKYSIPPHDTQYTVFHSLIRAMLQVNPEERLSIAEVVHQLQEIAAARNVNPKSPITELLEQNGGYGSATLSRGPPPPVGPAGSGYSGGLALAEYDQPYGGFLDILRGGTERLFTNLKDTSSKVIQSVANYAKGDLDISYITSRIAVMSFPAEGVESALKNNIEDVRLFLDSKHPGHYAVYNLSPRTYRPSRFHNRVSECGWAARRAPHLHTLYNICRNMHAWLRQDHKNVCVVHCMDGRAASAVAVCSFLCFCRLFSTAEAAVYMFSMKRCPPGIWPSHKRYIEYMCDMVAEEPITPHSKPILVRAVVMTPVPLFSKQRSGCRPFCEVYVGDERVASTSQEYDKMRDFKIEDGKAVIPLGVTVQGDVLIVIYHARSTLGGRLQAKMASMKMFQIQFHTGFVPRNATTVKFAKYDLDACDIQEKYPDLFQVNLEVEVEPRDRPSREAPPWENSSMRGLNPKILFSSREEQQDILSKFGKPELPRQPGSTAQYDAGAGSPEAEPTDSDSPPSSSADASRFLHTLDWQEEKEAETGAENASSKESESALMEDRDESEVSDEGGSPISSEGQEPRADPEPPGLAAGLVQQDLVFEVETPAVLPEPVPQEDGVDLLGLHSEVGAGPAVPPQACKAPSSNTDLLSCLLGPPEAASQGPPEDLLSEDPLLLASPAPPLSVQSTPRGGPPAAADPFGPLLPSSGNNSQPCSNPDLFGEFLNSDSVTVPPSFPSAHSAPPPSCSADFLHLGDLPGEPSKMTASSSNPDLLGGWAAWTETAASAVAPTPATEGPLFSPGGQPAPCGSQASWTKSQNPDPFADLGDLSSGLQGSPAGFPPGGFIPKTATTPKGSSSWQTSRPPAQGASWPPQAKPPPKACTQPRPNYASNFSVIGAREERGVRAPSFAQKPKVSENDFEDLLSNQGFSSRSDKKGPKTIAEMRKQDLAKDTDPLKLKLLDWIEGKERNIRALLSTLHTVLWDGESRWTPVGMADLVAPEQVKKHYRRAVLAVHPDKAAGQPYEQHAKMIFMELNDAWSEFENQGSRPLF
MAP4K2, sequence (Q12851 whole entry): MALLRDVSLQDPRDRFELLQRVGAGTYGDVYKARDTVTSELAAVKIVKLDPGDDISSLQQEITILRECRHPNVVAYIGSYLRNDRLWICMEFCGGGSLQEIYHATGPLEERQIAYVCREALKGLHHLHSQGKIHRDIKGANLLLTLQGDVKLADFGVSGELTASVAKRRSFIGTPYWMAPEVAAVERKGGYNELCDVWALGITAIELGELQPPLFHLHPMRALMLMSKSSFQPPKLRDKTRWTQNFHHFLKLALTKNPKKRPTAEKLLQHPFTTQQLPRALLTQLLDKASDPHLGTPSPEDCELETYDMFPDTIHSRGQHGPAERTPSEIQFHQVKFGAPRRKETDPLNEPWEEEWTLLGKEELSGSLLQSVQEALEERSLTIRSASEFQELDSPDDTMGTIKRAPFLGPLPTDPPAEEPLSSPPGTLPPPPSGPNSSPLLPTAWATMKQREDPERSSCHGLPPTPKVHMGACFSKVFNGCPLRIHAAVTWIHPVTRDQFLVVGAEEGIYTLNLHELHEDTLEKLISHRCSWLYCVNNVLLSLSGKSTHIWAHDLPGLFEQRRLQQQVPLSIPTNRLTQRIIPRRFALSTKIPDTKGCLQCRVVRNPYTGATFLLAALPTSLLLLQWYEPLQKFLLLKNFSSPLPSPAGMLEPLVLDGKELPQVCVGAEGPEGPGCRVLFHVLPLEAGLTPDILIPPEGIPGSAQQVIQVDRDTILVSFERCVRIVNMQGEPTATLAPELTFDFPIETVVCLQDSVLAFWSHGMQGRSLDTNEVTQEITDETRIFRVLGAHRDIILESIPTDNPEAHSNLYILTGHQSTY
PHKG2, sequence (P15735 whole entry): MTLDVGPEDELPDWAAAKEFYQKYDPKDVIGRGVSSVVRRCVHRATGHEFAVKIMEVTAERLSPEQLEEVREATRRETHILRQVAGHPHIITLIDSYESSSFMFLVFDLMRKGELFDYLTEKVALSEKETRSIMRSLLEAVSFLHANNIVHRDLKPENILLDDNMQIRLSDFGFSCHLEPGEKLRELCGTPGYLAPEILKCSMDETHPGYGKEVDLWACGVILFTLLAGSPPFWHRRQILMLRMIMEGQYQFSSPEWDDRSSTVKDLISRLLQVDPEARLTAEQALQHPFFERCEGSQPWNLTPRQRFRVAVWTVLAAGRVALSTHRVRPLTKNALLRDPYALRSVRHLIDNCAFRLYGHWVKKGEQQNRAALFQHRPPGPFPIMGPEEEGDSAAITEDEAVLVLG
CDK9, sequence (P50750 whole entry): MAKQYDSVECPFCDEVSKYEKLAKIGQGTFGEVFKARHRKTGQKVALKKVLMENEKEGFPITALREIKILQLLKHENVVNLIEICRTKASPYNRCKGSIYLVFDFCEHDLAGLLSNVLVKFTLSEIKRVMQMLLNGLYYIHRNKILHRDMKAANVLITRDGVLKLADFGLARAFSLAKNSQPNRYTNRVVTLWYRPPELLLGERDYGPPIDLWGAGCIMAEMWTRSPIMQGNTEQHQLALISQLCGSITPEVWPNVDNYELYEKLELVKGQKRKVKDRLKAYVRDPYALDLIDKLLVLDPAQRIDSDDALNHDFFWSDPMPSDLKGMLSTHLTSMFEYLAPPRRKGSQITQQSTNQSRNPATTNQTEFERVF
RPS6KA5(Kin.Dom.2-C-terminal), sequence (O75582 426-687 limits assumed): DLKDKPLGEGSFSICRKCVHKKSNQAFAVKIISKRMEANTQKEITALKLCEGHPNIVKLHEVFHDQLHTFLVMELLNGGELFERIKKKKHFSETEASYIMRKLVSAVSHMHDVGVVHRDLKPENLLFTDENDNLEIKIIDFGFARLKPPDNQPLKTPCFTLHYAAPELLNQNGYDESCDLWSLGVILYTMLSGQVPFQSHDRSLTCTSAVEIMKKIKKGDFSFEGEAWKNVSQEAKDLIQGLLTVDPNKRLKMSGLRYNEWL

## O=C1CCC(N2C(=O)c3cccc(NCCCCCCCCNC(=O)N4CC[C@H](NC5=Nc6cc(F)ccc6N(CC(F)F)c6ccc(Cl)cc65)C4)c3C2=O)C(=O)N1 (stereo partly drawn) [BJG-05-039, (3S)-3-((2-Chloro-5-(2,2-difluoroethyl)-8-fluoro-5H-dibenzo[b,e][1,4]diazepin-11-yl)amino)-N-(8-((2-(2,6-dioxopiperidin-3-yl)-1,3-dioxoisoindolin-4-yl)amino)octyl)pyrrolidine-1-carboxamide]
MARK2
  remaining binding at 10 µM: 38%
PHKG2
  remaining binding at 10 µM: 40%
[1]
  remaining binding at 10 µM: 42%
AAK1
  remaining binding at 10 µM: 48%
CDK9
  remaining binding at 10 µM: 53%
GAK
  remaining binding at 10 µM: 56%
STK16
  remaining binding at 10 µM: 62%
FLT3(D835Y)
  remaining binding at 10 µM: 63%
MRCKA
  remaining binding at 10 µM: 63%
PHKG1
  remaining binding at 10 µM: 65%
RIPK2
  remaining binding at 10 µM: 67%
TRKA
  remaining binding at 10 µM: 72%
CAMK4
  remaining binding at 10 µM: 74%
CSNK1G2
  remaining binding at 10 µM: 78%
PFTAIRE2
  remaining binding at 10 µM: 78%
DCAMKL3
  remaining binding at 10 µM: 79%
PRKR
  remaining binding at 10 µM: 81%
RIOK1
  remaining binding at 10 µM: 84%
ERK2
  remaining binding at 10 µM: 85%
DDR2
  remaining binding at 10 µM: 86%
MAP4K2
  remaining binding at 10 µM: 89%
GSK3B
  remaining binding at 10 µM: 90%
EPHB4
  remaining binding at 10 µM: 91%
SLK
  remaining binding at 10 µM: 91%
TNK2
  remaining binding at 10 µM: 92%
ERN1
  remaining binding at 10 µM: 93%
LIMK1
  remaining binding at 10 µM: 94%
PIK3C2G
  remaining binding at 10 µM: 95%
FGFR1
  remaining binding at 10 µM: 97%
PRKCD
  remaining binding at 10 µM: 97%
NEK10
  remaining binding at 10 µM: 99%
[2]
  remaining binding at 10 µM: 100%
FLT3(N841I)
  remaining binding at 10 µM: 100%
MYLK
  remaining binding at 10 µM: 100%
MYLK4
  remaining binding at 10 µM: 100%
ROCK1
  remaining binding at 10 µM: 100%
ROCK2
  remaining binding at 10 µM: 100%
YANK1
  remaining binding at 10 µM: 100%
